Source: a melting point compilation (Tetko et al.; mined from patent text by program, amines drawn as free bases though some values may be those of a salt)

`O=C(c1ccc(Nc2ccccc2[N+](=O)[O-])cc1)c1ccccc1O` gave a melting point of 189 to 193 °C.
With `O=C(O)C(Sc1nc2ccccc2s1)c1ccccc1` (centres undefined) the melting point was 152 to 154 °C.
For `CCOC(=O)c1cn(C2CC2)c2c(Cl)c(F)c(Cl)cc2c1=O`, the melting point was 215 to 217 °C.
Work on `COc1cc(OC)c2c(=O)[nH]c(-c3cccc(-c4ccc(S(C)=O)cc4)c3)nc2c1` (centres undefined) yielded a melting point of over 300 °C.
`Cc1ccc2nc(CN3CCN(c4ccc(F)cc4)CC3)cn2c1` showed a melting point of 112 °C.
`Cc1oc2c(NC(=O)c3c(C(=O)OC(C)C)cccc3[N+](=O)[O-])cccc2c1C(C)(C)O` showed a melting point of 118 to 120 °C.
With `CCCCOc1ccc2c(O)c(C(=O)NCC(=O)O)ncc2c1` the melting point was 151 to 153 °C.
In the case of `COc1cccn2c(=O)c(CCOS(C)(=O)=O)c(C)nc12`, the melting point is reported as 180 °C.
`C[C@@H]1[C@H](c2ccccc2)OC(=O)N1C(=O)CCc1ccccc1` showed a melting point of 99 to 100 °C.
Work on `COP(=O)(COS(=O)(=O)c1c(C)cccc1Cl)OC` yielded a melting point of 55 to 57.5 °C.
Molecule `CC(=O)Nc1cnn2c(C)nc3ccccc3c12` has a melting point of 258 to 260 °C.
In the case of `O=C(O)c1cccc(-n2nnnc2S)c1`, the melting point is reported as 181 to 182 °C.
`N#Cc1ccc2c(c1)c1cc(C(=N)Nc3cccc(C(F)(F)F)c3)ccc1n2Cc1ccccc1` showed a melting point of 210 to 220 °C.
`CCn1cc(Br)nc(S(=O)(=O)Cc2ccc(Cl)cc2)c1=O` gave a melting point of 145 to 147 °C.
`CCc1nnc(NC(=O)C(c2ccccc2)c2ccccc2)o1` gave a melting point of 123 to 125 °C.
In the case of `CC1(C(=O)Cn2cncn2)COCOC1`, the melting point is reported as 95 to 97 °C.
`CS(=O)(=O)Nc1cc(NC(=O)CN)c([N+](=O)[O-])cc1Oc1ccccc1` gave a melting point of 208 to 210 °C.
In the case of `COc1cc(OC)cc(C2CCCCC2=CC(=O)O)c1` (centres undefined), the melting point is reported as 154 to 156 °C.
Molecule `O=C(NC1CCCCC1)NS(=O)(=O)c1cnccc1NC1CCCCC1` has a melting point of 165 to 167 °C.
For `Nc1nc2ccc(S(=O)(=O)n3c(CCC(=O)O)cc4cc(Cl)ccc43)cc2s1`, the melting point was 250 to 255 °C.
`N=C(N)SCc1c(Cl)ccc2c1oc1c(CSC(=N)N)c(Cl)ccc12` showed a melting point of over 220 °C.
Molecule `CC(=O)Oc1ccc(OCc2ccccc2)cc1CC(Br)CBr` (racemic) has a melting point of 72 to 74 °C.
For `COc1cccc(-c2cc3[nH]nc(I)c3s2)c1`, the melting point was 159 to 163 °C.
Work on `COc1ccc(Cl)cc1C(=O)NCCc1ccc(Br)c(S(N)(=O)=O)c1` yielded a melting point of 190 °C.
`O=C(O)c1ccc(-c2cccc(C(=O)O)c2)cc1` gave a melting point of over 250 °C.
`Cc1cccc(Nc2ncnc3cnc(NC4CCN(C(=O)N(C)C)CC4)nc23)c1` showed a melting point of 185 to 187 °C.
For `CN(C(=S)Nc1ccc(NNC=O)cc1)c1ccccc1`, the melting point was 137 to 139 °C.
Molecule `O=C(COc1ccccc1)NCCCn1ccnc1` has a melting point of 91 to 93 °C.
With `CC1(C)C(C#N)C1(C)C` the melting point was 17 °C.
Work on `CN1CCC(=C(c2ccc(F)cc2)c2cccnc2)CC1` yielded a melting point of 93.1 °C.
Molecule `CSc1c[nH]c2ccc(C)cc12` has a melting point of 136 to 137 °C.
With `O=CNC1(c2ccccc2)CCN(Cc2ccccc2)CC1` the melting point was 140 °C.
`O=C1CCC(C(=O)Nc2ccccc2C(=O)c2ccccc2)O1` (centres undefined) gave a melting point of 100 to 102 °C.
Molecule `OC1(c2ccc(OCc3ccccc3)c(OCc3ccccc3)c2)CCCN(Cc2ccccc2)C1` (centres undefined) has a melting point of 80 °C.
Work on `CCCCCCCCCCCCCc1c[nH]c(C(=O)OCC)c1` yielded a melting point of 59 to 60 °C.
For `O=C(O)CCC(=O)N(CCCOc1ccc(C(=O)O)cc1)c1ccc(Cl)cc1`, the melting point was 155 to 158 °C.
With `NC(=O)C1CCCc2c1c1cc(OCCCP(=O)(O)O)ccc1n2Cc1ccccc1` (centres undefined) the melting point was 200 to 201 °C.
`Cc1nc2n(c(=O)c1CCN1CCC(=C(c3ccccc3)c3ccccc3)CC1)CCCS2` showed a melting point of 176 °C.
`CC(C)(C)c1cc(SCCO)cc(C(C)(C)C)c1O` gave a melting point of 66 °C.
Work on `COC(=O)CC[C@H](NC(=O)c1ccc(NCCCc2c(NC(C)=O)nc(NC(C)=O)[nH]c2=O)cc1)C(=O)OC` yielded a melting point of 135 to 142 °C.
`O=C(O)Cc1ccccc1Sc1ccc(F)c(Cl)c1` gave a melting point of 85 to 87 °C.
In the case of `NP(N)(=O)OCC(Cl)(Cl)Cl`, the melting point is reported as 86 to 87 °C.
Molecule `O=C(O)c1ccc(OCCCON=Cc2ccc(-c3ccccc3)cc2)cc1NC(=O)c1ccccc1C(F)(F)F` has a melting point of 170 to 172 °C.
Work on `CCOC(=O)C1=C[C@@H](O)[C@H](NC(C)=O)[C@@H](NC(=O)OC(C)(C)C)C1` yielded a melting point of 177 to 178 °C.
Molecule `O=C(c1ccc(OC[C@H](O)CO)cc1)c1ccc([N+](=O)[O-])cc1` has a melting point of 104 to 105 °C.
Work on `C=CCOc1ccc(COc2ccc(CC(=O)O)cc2Cl)cc1` yielded a melting point of 106 to 107 °C.
With `CC(C)(C)c1ccc(S(=O)(=O)N2c3ccccc3C[C@H]2C(=O)NCc2ccc([N+](=O)[O-])cc2)cc1` the melting point was 75 to 80 °C.
Molecule `C[C@H](N=C(C(=O)O)C(C)(C)C)c1ccccc1` has a melting point of 135 to 136 °C.
Molecule `Fc1cc(F)c2c(c1)C[C@@H](n1c(CN3CCOCC3)c[nH]c1=S)CC2` has a melting point of 182 to 184 °C.
For `c1ccc(CN2CCOC(CN3c4ccccc4CCc4ccccc43)C2)cc1` (centres undefined), the melting point was 139 to 140 °C.
In the case of `N#CC1(O)CCN(c2ncccc2F)CC1`, the melting point is reported as 76 to 78 °C.
With `Nc1cc(Sc2cccc3cnccc23)c(F)cc1[N+](=O)[O-]` the melting point was 217 to 220 °C.
`COc1ccc(COC/C(=C/c2ccc(C(=O)O)cc2)Cn2ccnc2)cc1` showed a melting point of 120 to 122 °C.
For `COC(=O)CC/C(C)=C/Cc1c(O)c2c(c(C)c1OC)COC2=O`, the melting point was 104 to 105 °C.
`Cc1nc(Nc2ccc(F)c(Cl)c2)c2nc(N3CCC(N)CC3)ncc2n1` showed a melting point of 156 to 163 °C.
Molecule `Cn1c(C(F)(F)F)cc(C#N)c1-c1ccc2ccccc2c1` has a melting point of 134 °C.
For `Clc1ccc(Nc2nnc(Cc3ccncc3)c3cnccc23)cc1`, the melting point was 227 to 228 °C.
For `CCCCCCCCCc1ccc(C(=O)CCCCC(=O)O)cc1`, the melting point was 29 to 31 °C.
With `Cc1ccc(-c2nc3ccc(N(C)C)cn3c2CN(C)C(=O)CC(C)C)cc1` the melting point was 200 to 202 °C.
With `Cn1ncnc1COc1nc2c(cc1-c1ccoc1)nnn2-c1ccccc1F` the melting point was 145 to 146 °C.
For `COc1cc(COc2nn(-c3ccccc3)cc2/C=C/C(N)=S)ccc1OCc1nc(-c2ccco2)oc1C`, the melting point was 129 to 131 °C.
In the case of `CCSC(=N)Nc1ccc(CCN(C)Cc2ccccc2)cc1`, the melting point is reported as 136 to 137 °C.
With `O=C(Nc1ncc(C(F)(F)F)o1)C1c2cc(F)ccc2Oc2ccc(F)cc21` the melting point was 232 °C.
Molecule `CCCOc1ccccc1-c1nc(N)cc(=O)[nH]1` has a melting point of 184 °C.
`O=C(Nc1ccc(S(=O)(=O)C(F)(F)F)cc1Cl)c1cc(-c2ccc(F)cc2F)cc(C23CC4CC(CC(C4)C2)C3)c1O` gave a melting point of 177 to 178 °C.
With `N#CCCNC(=O)c1cccc(-c2cccc3nn(Cc4ccccc4F)cc23)c1` the melting point was 165 to 166 °C.
Work on `COc1cc(C)c(C=CC(C)=CC=CC(C)=CC(=O)n2ccnc2)c(C)c1C` yielded a melting point of 184 to 185 °C.
Work on `Oc1ccc(-c2nn(-c3ccc(Br)cc3)c3c(C(F)(F)F)cccc23)cc1` yielded a melting point of 176 to 177 °C.
`CCCCC(NS(=O)(=O)c1ccc(Cl)cc1)C(=S)Nc1ccc(CCC(=O)OC)cc1` (racemic) showed a melting point of 87 to 89 °C.
`C=C(Nc1nc(-c2ccccc2)c(-c2nc3ccccc3c(=O)n2-c2ccccc2)s1)c1ccco1` showed a melting point of 271 to 272 °C.
With `Sc1nnc(-c2ccc3ncsc3c2)o1` the melting point was 274 to 275 °C.
`CCOC(=O)/C=C/c1nc(COc2ccc(COc3nn(-c4ccccc4)cc3/C=C/P(=O)(OCC)OCC)cc2OC)c(C)o1` gave a melting point of 130 to 131 °C.
Work on `COCc1c(CO)ncc2[nH]c3cccc(Cc4ccc(Cl)cc4)c3c12` yielded a melting point of 220 to 222 °C.
`CC(=O)SCC(=Cc1cc(F)cc(F)c1)C(=O)NCCC(=O)OCc1ccccc1` showed a melting point of 82 °C.
Work on `CC1Cc2ccccc2P1c1ccccc1P(c1ccccc1)c1ccccc1` (single isomer, unassigned; (+)) yielded a melting point of 40 to 42 °C.
Work on `O=C(Cc1cccs1)Nc1cccc2nc(N[C@@H]3CCc4ccccc43)ccc12` yielded a melting point of 164 °C.
In the case of `CC(=O)Nc1cccc(-c2ccc3nc(-c4cccnc4N)n(-c4ccc(CNS(=O)(=O)c5ccccc5)cc4)c3n2)c1`, the melting point is reported as 180 to 182 °C.
For `Cc1oc(-c2ccccc2)nc1CCOc1ccc(CCCC2OC(=O)NC2=O)cn1` (centres undefined), the melting point was 169 to 171 °C.
For `CCNc1cncc(C(=NCCc2ccccc2Cl)NC#N)c1`, the melting point was 168 °C.
Molecule `C=CCOc1ccccc1OCC=Cc1ccc(OC)c(OC)c1` has a melting point of 60 to 60.5 °C.
For `COc1ccc2c(-c3ccccc3F)noc2c1C`, the melting point was 105 to 108 °C.
For `CCN1c2ncc(CSc3ccccc3)cc2C(=O)N(C)c2ccc(Cl)nc21`, the melting point was 92 to 93 °C.
With `CCOC(Oc1cc(Cl)cc(Cl)c1)C(=O)O` (centres undefined) the melting point was 83.5 to 86.5 °C.
Work on `COc1ccccc1-n1c(=O)[nH]c2c(C(N)=O)nc(-c3cccc([N+](=O)[O-])c3)nc21` yielded a melting point of 295 to 296 °C.
`CCCCc1nc(C)c(CCC(=S)N(CC)CC)c(=O)n1Cc1ccc(-c2ccccc2-c2nnn[nH]2)cc1` showed a melting point of 77.8 to 81.1 °C.
With `Cc1ccc(C(=O)c2ccc(CC#N)n2C)cc1` the melting point was 102 to 105 °C.
For `CCCCCN1C(=O)CC(c2ccc(C(F)(F)F)cc2)C(C(=O)OCC)C1=O` (centres undefined), the melting point was 112 to 115 °C.
In the case of `CCOc1cc(-c2cc(C(F)(F)F)n3cnc(-c4ccncc4)c3n2)ccc1C(F)(F)F`, the melting point is reported as 212 °C.
`Cc1ccc(C(=O)c2c(N)cc(C(=O)O)cc2OCc2ccccc2)cc1` gave a melting point of 182 to 184 °C.
`CCN(CC)C(=O)c1ccsc1-c1ccc(F)cc1` gave a melting point of 62 to 63 °C.
For `O=C(Nc1ccc(-n2nc(C(F)(F)F)cc2C(F)(F)F)cc1)C1(O)CC1`, the melting point was 198 to 200 °C.
`COc1ccc(Cc2nc3cccc(NCc4cccnc4)c3o2)cc1OC1CCCC1` showed a melting point of 90 to 92 °C.
`O=C(Nc1ccc(F)cc1)c1nnc2ccccc2c1O` gave a melting point of 280 to 284 °C.
Work on `CCCc1nc2c(N)nc3ccccc3c2n1CCCC(=O)OCC` yielded a melting point of 154 to 156 °C.
`CN1CCC(CNc2ncc3ncnc(Nc4ccc(F)c(Cl)c4)c3n2)CC1` showed a melting point of 198 to 201 °C.
For `C=CCc1cc(C(C)=O)c(O)cc1OCCCCCCCC#N`, the melting point was 46 to 48 °C.
Work on `CN(C)c1ccc(C2=NN(S(=O)(=O)c3ccc(I)cc3)CCC2)cc1` yielded a melting point of 203 to 205 °C.
`CC(CC1c2ccccc2CCN1C)NCC(O)c1ccc(O)cc1` (centres undefined) gave a melting point of 113 to 115 °C.
`COC(=O)c1ccc(OC)c(CC2COc3ccc(OCc4ccccc4)cc3C2O)c1` (centres undefined) showed a melting point of 133 to 135 °C.
